The values below come from the Kinase Knowledgebase extract (Sharma et al. 2016).

Structures are written as SMILES.

Usually Ki stands for the equilibrium dissociation constant of an inhibitor or competing ligand from its target. Read a high Ki as lower affinity.

Chain of PIK3CG (human) (P48736 whole entry, looked up): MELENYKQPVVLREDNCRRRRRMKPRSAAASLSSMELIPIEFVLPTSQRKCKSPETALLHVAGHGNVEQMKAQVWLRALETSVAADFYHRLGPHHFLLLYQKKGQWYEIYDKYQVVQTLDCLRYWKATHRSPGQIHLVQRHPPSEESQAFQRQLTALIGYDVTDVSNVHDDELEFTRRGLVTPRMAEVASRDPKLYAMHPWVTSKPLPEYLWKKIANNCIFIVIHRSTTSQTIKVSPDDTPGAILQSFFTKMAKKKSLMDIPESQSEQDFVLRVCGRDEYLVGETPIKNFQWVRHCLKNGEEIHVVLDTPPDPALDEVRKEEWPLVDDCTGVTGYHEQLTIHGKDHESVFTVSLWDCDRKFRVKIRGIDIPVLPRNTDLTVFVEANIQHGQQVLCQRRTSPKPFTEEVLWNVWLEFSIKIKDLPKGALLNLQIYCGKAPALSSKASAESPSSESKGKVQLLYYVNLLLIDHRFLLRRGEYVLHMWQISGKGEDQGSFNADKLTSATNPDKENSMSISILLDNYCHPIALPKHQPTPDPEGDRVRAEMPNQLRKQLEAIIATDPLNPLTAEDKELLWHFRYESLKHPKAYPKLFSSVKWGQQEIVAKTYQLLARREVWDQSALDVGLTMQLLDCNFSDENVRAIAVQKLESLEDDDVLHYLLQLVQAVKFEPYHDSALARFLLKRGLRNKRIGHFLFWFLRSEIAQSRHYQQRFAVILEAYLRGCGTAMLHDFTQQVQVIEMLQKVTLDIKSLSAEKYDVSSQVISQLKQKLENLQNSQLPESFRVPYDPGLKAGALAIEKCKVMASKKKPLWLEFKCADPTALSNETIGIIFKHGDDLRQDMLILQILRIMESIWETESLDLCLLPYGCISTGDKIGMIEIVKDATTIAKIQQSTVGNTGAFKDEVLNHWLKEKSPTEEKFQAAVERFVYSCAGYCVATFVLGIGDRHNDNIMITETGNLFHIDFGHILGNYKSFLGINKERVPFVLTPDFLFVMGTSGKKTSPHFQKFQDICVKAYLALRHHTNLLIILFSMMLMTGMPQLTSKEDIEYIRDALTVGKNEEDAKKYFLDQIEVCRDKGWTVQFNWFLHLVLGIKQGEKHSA

The assay addresses PIK3CG (human) (UniProt P48736). Kind of assay: Inhibition of PIK3CG Kinase Activity.
Compound `CCOc1cncc(-c2cc(C)c3c(n2)C(C)(C)N(c2cnn(COCCOC)c2)C3=O)c1` displayed a Ki of 100 to 490 nM.
Then `COc1cc(-c2cc(C)c3c(n2)CN(c2cnc(NC(C)=O)c(C)c2)C3=O)cnc1OC`, with under 100 nM.
For `Cc1cc(-c2cncc(OCC(F)F)c2)nc2c1C(=O)N(c1cnn(CC(F)(F)F)c1)[C@H]2C` the value was under 100 nM; for `COc1ncc(-c2cc(C)c3c(n2)C(C)N(c2cnn(CC(F)(F)F)c2)C3=O)cc1C(=O)NC(C)C` (stereo not drawn), under 100 nM.
For `COc1cc(-c2ccc3c(n2)CN(c2cccs2)C3=O)cnc1OC` the value was under 100 nM; for `COc1cc(-c2ccc3c(n2)[C@@H](OC)N(c2cnn(CC(F)(F)F)c2)C3=O)cnc1OC`, under 100 nM; for `CCn1cc(N2C(=O)c3c(C)cc(-c4cncc(OC(F)F)c4)nc3[C@H]2C)cn1`, under 100 nM.
As for `COc1cc(-c2ccc3c(n2)CN(c2cnn(CC(F)(F)F)c2)C3=O)cnc1OC(F)F`, the Ki was 100 to 490 nM.
Then `COc1cncc(-c2cc(C)c3c(n2)C2(CCCO2)N(c2cnn(CC(F)(F)F)c2)C3=O)c1` (stereo not drawn), with under 100 nM; and `CCOc1ncc(-c2cc(C)c3c(n2)C(OC)N(c2cnn(CC(F)(F)F)c2)C3=O)cc1OC` (stereo not drawn), with under 100 nM; and `COc1ncc(-c2ccc3c(n2)CN(c2cnn(CC(F)(F)F)c2)C3=O)cc1OC(F)F`, with under 100 nM.
In the case of `CCOC1(C)c2nc(-c3cnc(OC)c(OC)c3)cc(C)c2C(=O)N1c1cnn(CC(F)(F)F)c1` (stereo not drawn), the inhibition constant Ki is under 100 nM.
`COc1cc(-c2ccc3c(n2)CN(c2cnn(CC4CNC(=O)O4)c2)C3=O)cnc1OC` (stereo not drawn) registered a Ki of under 100 nM.
The compound `COc1cc(-c2ccc3c(n2)CN(c2ccc(N4CCC(OC)CC4)nc2)C3=O)cnc1OC` returned a Ki of under 100 nM.
As to `COc1cc(-c2cc(C)c3c(c2)C(C)N(c2cnn(CC(F)(F)F)c2)C3=O)cnc1OC` (stereo not drawn), the Ki is under 100 nM.
As for `COc1cc(-c2cc(C)c3c(n2)C(OC(C)=O)N(c2cnn(CC(F)(F)F)c2)C3=O)cnc1OC` (stereo not drawn), the Ki is under 100 nM.
For `COc1cc(OC)cc(-c2cc(C)c3c(n2)[C@@H](C)N(c2cnn(CC(F)(F)F)c2)C3=O)c1` the value was under 100 nM; for `Cc1cc(-c2cncc(OC(F)F)c2)nc2c1C(=O)N(c1cnn(C[C@@H](C)O)c1)C2`, under 100 nM.
As for `COc1cc(-c2cc(C)c3c(n2)CN(c2cccc(C(C)(C)C#N)n2)C3=O)cnc1OC`, the Ki is under 100 nM.
For `COc1cc(-c2cc(C)c3c(n2)C(O)(OC)N(c2cnn(CC(F)(F)F)c2)C3=O)cnc1OC` (stereo not drawn) the value was under 100 nM; for `Cc1cc(-c2cncc(C(=O)NCC3CC3)c2)nc2c1C(=O)N(c1cnn(CC(F)(F)F)c1)C2(C)C`, under 100 nM.
For `COc1ncc(-c2cc(C)c3c(n2)CN(c2cn[nH]c2)C3=O)cc1OCC(F)(F)F` the value was under 100 nM; for `COc1cncc(-c2cc(C)c3c(n2)C(C)N(c2cc[nH]n2)C3=O)c1` (stereo not drawn), under 100 nM.
For `COc1cncc(-c2cc(C)c3c(n2)C(C)(C)N(c2ccn(C[C@H](C)O)n2)C3=O)c1` the value was under 100 nM.
Regarding `COc1cc(N2Cc3nc(-c4cnc(OC)c(OC)c4)ccc3C2=O)n[nH]1`, the inhibition constant (Ki) is under 100 nM.
Compound `COc1ccc(-c2cc(C)c3c(n2)CN(c2cnn(CC#N)c2)C3=O)nc1OC` gave an inhibition constant Ki of under 100 nM.
Then `Cc1cc(-c2cncc(S(C)(=O)=O)c2)nc2c1C(=O)N(c1cnn(CC(F)(F)F)c1)C2C` (stereo not drawn), with under 100 nM; and `COc1cc(-c2cc(C)c3c(n2)CN(c2ccnc(C#N)c2)C3=O)cnc1OC`, with under 100 nM; and `Cc1cc(-c2cncc(OCC(F)F)c2)nc2c1C(=O)N(c1cnn(CC(F)(F)F)c1)C2O` (stereo not drawn), with under 100 nM.
For `Cc1cc(-c2cncc(C(=O)NC(C)(C)C)c2)nc2c1C(=O)N(c1cnn(CC(F)(F)F)c1)C2(C)C` the value was under 100 nM; for `COc1cc(-c2ccc3c(n2)CN(c2ccsc2)C3=O)cnc1OC`, under 100 nM.
Compound `CCOc1ncc(-c2cc(C)c3c(n2)[C@@]2(CCCO2)N(c2ccn(CC)n2)C3=O)cc1OC` came in with a Ki of 100 to 490 nM.
For `COc1cc(-c2ccc3c(n2)CN(c2cnn(Cc4cccnc4C)c2)C3=O)cnc1OC` the value was under 100 nM; for `COc1cc(-c2cc(OC)c3c(n2)CN(c2cnn(CC#N)c2)C3=O)cnc1OC`, under 100 nM; for `COc1cc(-c2ccc3c(n2)CN(c2ccnc(CC#N)c2)C3=O)cnc1OC`, under 100 nM.
In turn, `COc1ncc(-c2cc(C)c3c(n2)C(C)(C)N(c2cnn(CC(F)(F)F)c2)C3=O)cc1C(=O)NCC(C)(C)O` gave an inhibition constant Ki of under 100 nM.
For `CCOc1cncc(-c2cc(C)c3c(n2)CN(c2cnn(CC(F)(F)F)c2)C3=O)c1` the value was under 100 nM; for `COc1cc(-c2ccc3c(c2)CN(c2cnn(CCO)c2)C3=O)cnc1OC`, 100 to 490 nM; for `COc1cc(-c2cc(C)c3c(n2)CN(c2nc(CO)cs2)C3=O)cnc1OC`, under 100 nM.
Then `CCNC(=O)c1cc(-c2cc(C)c3c(n2)C(C)N(c2cnn(CC(F)F)c2)C3=O)cnc1OC` (stereo not drawn), with under 100 nM.
For `COc1cc(-c2ccc3c(n2)CN(c2ccc(N(C)CCC4OCCO4)nc2)C3=O)cnc1OC` the value was 100 to 490 nM.
As to `COc1cc(-c2cc(C)c3c(n2)C2(CCCO2)N(c2cnn(CC(F)(F)F)c2)C3=O)cnc1OC(C)C` (stereo not drawn), the inhibitory constant (Ki) was under 100 nM.
Turning to `COc1cc(-c2ccc3c(n2)[C@H](C)N(c2cn(CC(F)(F)F)cn2)C3=O)cnc1OC`, the inhibition constant Ki was under 100 nM.
For `COc1cc(-c2cc(C)c3c(n2)CN(c2ccn(C4CC4)n2)C3=O)cnc1OC` the value was under 100 nM; for `COc1cc(-c2ccc3c(c2)CN(c2cn(C)nn2)C3=O)cnc1OC`, under 100 nM.
The compound `COc1ncc(-c2cc(C)c3c(n2)CN(c2cnn(C(C)(C)C#N)c2)C3=O)cc1OCC(F)(F)F` registered a Ki of under 100 nM.
Then `COc1cc(-c2ccc3c(n2)CN(c2cnn(C(F)(F)C#N)c2)C3=O)cnc1OC`, with under 100 nM; and `CCO[C@@]1(C)c2nc(-c3cnc(OC)c(OC)c3)cc(C)c2C(=O)N1c1cnn(CC(F)(F)F)c1`, with under 100 nM; and `COc1cncc(-c2cc(C)c3c(n2)C(C)N(c2ccn([C@@H]4CCOC4)n2)C3=O)c1` (stereo partly drawn), with under 100 nM.
In turn, `CCNC(=O)c1cncc(-c2cc(C)c3c(n2)C(C)N(c2cnn(CC(F)(F)F)c2)C3=O)c1` (stereo not drawn) displayed a Ki of under 100 nM.
Then `Cc1cc(-c2cncc(C(=O)N(C)C(C)CO)c2)nc2c1C(=O)N(c1cnn(CC(F)(F)F)c1)C2(C)C` (stereo not drawn), with under 100 nM; and `Cc1cc(-c2cncc(S(C)(=O)=O)c2)nc2c1C(=O)N(c1cnn(CC(F)(F)F)c1)C2(C)C`, with under 100 nM; and `CCC(=O)Nc1cncc(-c2cc(C)c3c(n2)C(C)(C)N(c2cnn(CC(F)(F)F)c2)C3=O)c1`, with 100 to 490 nM.
In turn, `COc1ncc(-c2cc(C)c3c(n2)C(C)(C)N(c2cnn(CC(F)(F)F)c2)C3=O)cc1C(=O)NC(C)CO` (stereo not drawn) registered a Ki of under 100 nM.
For `COc1cc(-c2cc(C)c3c(n2)CN(c2ccc(OCCC(F)(F)F)nc2)C3=O)cnc1OC`, the Ki was under 100 nM.
For `COc1cc(-c2ccc3c(n2)CN(c2ccc(OCCCC(F)(F)F)nc2)C3=O)cnc1OC` the value was under 100 nM.
For `CCOc1cc(-c2cc(C)c3c(n2)CN(c2cnn(CC#N)c2)C3=O)cnc1OC` the value was under 100 nM; for `Cc1cc(-c2cncc(OCC(F)F)c2)nc2c1C(=O)N(c1cnn(CC(F)F)c1)C2C` (stereo not drawn), under 100 nM.
Then `Cc1cc(-c2cncc(OC(F)F)c2)nc2c1C(=O)N(c1cnn(C[C@H](C)O)c1)C2C` (stereo partly drawn), with under 100 nM; and `CCn1ccc(N2C(=O)c3c(C)cc(-c4cncc(OC)c4)nc3C2(C)C)n1`, with 100 to 490 nM.
In turn, `COCCO[C@@H]1c2nc(-c3cnc(OC)c(OC)c3)ccc2C(=O)N1c1cnn(CC(F)(F)F)c1` had a Ki of under 100 nM.
For `COc1cc(-c2ccc3c(n2)CN(c2cnn([C@H](C)CO)c2)C3=O)cnc1OC` the value was under 100 nM.
For `COc1cc(-c2cc(C)c3c(n2)CN(c2ccnc(C4(C#N)CC4)c2)C3=O)cnc1OC` the value was under 100 nM; for `Cc1cc(-c2cncc(C(=O)NC3CCOC3)c2)nc2c1C(=O)N(c1cnn(CC(F)(F)F)c1)C2(C)C` (stereo not drawn), under 100 nM; for `COc1cc(-c2cc(C)c3c(n2)CN(c2cncc(CO)c2)C3=O)cnc1OC`, under 100 nM.
`Cc1cc(-c2cncc(S(=O)(=O)C(C)C)c2)nc2c1C(=O)N(c1cnn(CC(F)(F)F)c1)C2(C)C` had a Ki of under 100 nM.
Then `COc1cc(-c2cc(C)c3c(n2)[C@H](C)N(c2cnn(C[C@@H](C)O)c2)C3=O)cnc1OC`, with under 100 nM.
Then `COc1cc(-c2cc(C)c3c(n2)CN(c2ccn([C@@H]4CCOC4)n2)C3=O)cnc1F`, with under 100 nM; and `COc1cc(-c2ccc3c(n2)CN(c2ccc(N4CCCC(CO)C4)nc2)C3=O)cnc1OC` (stereo not drawn), with under 100 nM; and `Cc1cc(-c2cncc(OC(F)F)c2)nc2c1C(=O)N(c1cnn(C[C@H](C)O)c1)[C@@H]2C`, with under 100 nM.
Then `COc1ncc(-c2cc(C)c3c(n2)CN(c2ccn(C(C)(C)C#N)n2)C3=O)cc1OCC(F)F`, with under 100 nM; and `COc1cc(-c2ccc3c(c2)CN(c2cn[nH]c2)C3=O)cnc1OC`, with under 100 nM; and `Cc1cc(-c2cncc(OCC(F)(F)F)c2)nc2c1C(=O)N(c1cnn(CC(F)(F)F)c1)C2(C)C`, with under 100 nM.
`CCOc1cncc(-c2cc(C)c3c(n2)C(C)(C)N(c2cnn(CC(F)F)c2)C3=O)c1` yielded an inhibition constant (Ki) of under 100 nM.
For `COc1cc(-c2ccc3c(n2)CN(c2ccc(N4CCOC(CO)C4)nc2)C3=O)cnc1OC` (stereo not drawn) the value was 100 to 490 nM; for `COc1cc(-c2ccc3c(n2)CN(c2cnn(CCn4ccc(C)n4)c2)C3=O)cnc1OC`, 100 to 490 nM.
Then `COc1cc(-c2cc(Cl)c3c(n2)CN(c2cnn(CC(F)(F)F)c2)C3=O)cnc1OC`, with under 100 nM; and `COc1cc(-c2cc(C)c3c(n2)CN(c2cc(C)[nH]n2)C3=O)cnc1OC`, with under 100 nM.
In turn, `CCn1cc(N2C(=O)c3ccc(-c4cnc(OC)c(OC)c4)nc3C2C)cn1` (stereo not drawn) yielded a Ki of under 100 nM.
For `COCCOCCOc1ncc(-c2cc(C)c3c(n2)CN(c2cnn(C)c2)C3=O)cc1OC` the value was 100 to 490 nM; for `COc1cncc(-c2cc(C)c3c(c2)CN(c2cnn(CC(F)(F)F)c2)C3=O)c1`, under 100 nM.
Then `COc1cc(-c2ccc3c(n2)CN(c2cnn(CCO)c2)C3=O)cnc1OC`, with under 100 nM.
The compound `COc1cc(-c2ccc3c(n2)CN(c2cnn(CCN(C)C)c2)C3=O)cnc1OC` had a Ki of 100 to 490 nM.
